Assay results taken from US20200001302A1, “MICROFLUIDIC DEVICES, SYSTEMS, INFRASTRUCTURES, USES THEREOF AND METHODS FOR GENETIC ENGINEERING USING SAME” (VALORBEC, SOCIÉTÉ EN COMMANDITE, priority 2018, published 2020).
Counter-ions that a name gives are not always drawn. Like-named read-outs stand apart in the source and are kept apart here.

Tests used:
[1] = tested on: RFP gene downstream of a T7 promoter in E. coli; test: IPTG inducer concentration optimization, RFP expression dose-response (AIMS and macro-scale); assay type: cell-based; conditions: after four hours
Protocol: For inducer concentration optimization carried out in the macroscale, starter cultures with a RFP plasmid were prepared at OD 0.1 from overnight inoculations. The cultures were grown at 37° C. with shaking and were induced upon reaching OD 0.4. 45 mL of the culture was induced at 200 micromolar and diluted with fresh media to generate the following IPTG concentrations: 200, 133.3, 88.9, 59.3, 40, 26.7, 17.8, and 11.9 micromolar. These sub-cultures were prepared in triplicates along with a non-induced control and were induced at 37° C. and shaken for 4 hours. After induction, 200 microliters of each culture were loaded onto a 96-well plate and fluorescence at 612 nm was measured with 582 nm excitation on a TECAN Infinite M200 plate reader (Mannedorf, Switzerland) with the settings: gain of 75, 25 flashes and 20 microseconds integration time. The fluorescence intensity with increasing IPTG concentration was plotted on a logarithmic scale to generate a dose-response curve.
In the inducer concentration optimization program, three unit droplets of 1.42 microliters containing transformed RFP-cells were dispensed from the culture region and mixed with 0.3 microliters of 3.24 mM IPTG. This droplet was actuated to an empty reservoir and one daughter droplet was split from this reservoir and actuated to the incubation region. […]

H1299 cells [2] = test: On-chip (ACE digital microfluidic) sorafenib dose-response, cell viability by Calcein-AM cell count; assay type: cell-based, Human; conditions: for IC50: Homo sapiens
Text: Similarly, in the microscale, the transfection protocol is followed for seeding cells and the 7-step protocol for transfection of the pCRISPR plasmid containing sgRNA targeting eGFP or Raf-1. The standard step 7 was replaced with step 7a and step 7b. In step 7a, sorafenib tosylate in complete media was actively dispensed into unit droplets and then diluted in liquid media to form six different concentrations (0 micromolar, 7.5 micromolar, 15 micromolar, 30 micromolar, 60 micromolar, 120 micromolar) of which one droplet (0.7 microliters) was used to passively dispense onto each hydrophilic spot and the other droplet was saved for future dilutions. After all cells were interrogated with the drugs, they were incubated for two days. In step 7b, six unit droplets of 5 micromolar Calcein-AM violet stain were passively dispensed to the cells and incubated for 30 min in which images were taken to count the cells using a single module imaging pipeline. Calcein-stained image was smoothed with a Gaussian filter (G, sigma=1) and used the Otsu Global thresholding method to detect objects with diameters of 20-100 pixel units (two classes, threshold correction factor=1.25). Neighboring pixels are grouped into objects and undesired clumped objects (e.g., two close overlapping objects) are declumped using intensity segregation. The counted cells were normalized to the control (e.g., cell interrogated with no drugs). All curves were fit with a sigmoid function and probed for statistical significance using an F-test in the linear region.
To verify the effects of targeting RAF1 by genome editing and enzymatic inhibition, H1299 cells were cultured, edited, assayed, and analyzed on the ACE platform following procedures for measuring transfection and knockout efficiencies. Images of the lung cancer cells that are transfected with and without pCRISPR targeting RAF1 and treated with the sorafenib inhibitor are analysed using the standardized imaging pipeline (FIG. 39B, FIG. 51). […] The effects of RAF protein kinase inhibitor sorafenib tosylate with and without CRISPR-mediated RAF1 targeting were examined.

H1299 cells [3] = test: Cell viability over 7 days after RAF1 gene editing and sorafenib tosylate (FIG. 50); assay type: cell-based, Human; conditions: cells with both pCRISPR targeting RAF1 and 15 micromolar sorafenib tosylate added on day 2; after day 4
Protocol: MAPK/ERK pathway experiments. The MAPK/ERK pathway experiments used two key components: CRISPR-Cas9 genomic disruption of Raf1 and drug inhibition using sorafenib tosylate. In the macroscale, 0.75×10^5 cells/mL of H1299 cells were seeded on day 0 in 24-well plates. 600 ng of the pCRISPR plasmid targeting eGFP (control) or RAF1 was applied to the wells containing the cells on day 1. On day 3, drug conditions were added at different concentrations: 0 micromolar, 7.5 micromolar, 15 micromolar, 30 micromolar, 60 micromolar, 120 micromolar which were diluted in complete media. On day 5, 5 micromolar Calcein-AM violet stain (λex, lambda(ex)=408 nm and λem, lambda(em)=450 nm) diluted in 250 microliters fresh serum-free media was added to the cells and incubated at 37° C. for 30 min. The viability of cells was assessed by performing a fluorescence well scan using the CLARIOStar well-plate reader. The measured fluorescence was normalized to the control to determine the percent viability.
To assess the coupled effects of genome editing and drug inhibition, the H1299 cells with a pCRISPR targeting RAF1 or a control sgRNA were transfected and 15 micromolar sorafenib tosylate was added on day 2. […]
Four conditions were tested by acquiring fluorescent measurements over 7 days to assess proliferation. […] All readings were taken in triplicate and error bars represent +/−1 s.d.

[4] = On-chip beta-glucosidase colorimetric assay, blue channel pixel intensity (image-based feedback system); assay type: biochemical, Thermobaculum terrenum
Protocol: The assay on-chip included three different solutions loaded onto the DMF device reservoirs. First, a unit droplet of cell lysate was dispensed and actuated to each of the four assay mixing areas (see FIG. 5 for DMF design) using a starting voltage of 230 VRMS at 15 kHz. The lysate was prepared from a colony of BL21(DE3) transformed with a plasmid containing beta-glucosidase (BGL) gene (see FIG. 6 and FIG. 7 for plasmid map and sequence (SEQ ID NO: 1) respectively) that was grown at 37° C. and induced at 0.4 O.D (˜1.75 h starting at 0.1 O.D). The assay started by the addition of a droplet containing substrate to a droplet of cell lysate. The substrate solution contained 50 mM sodium citrate at pH 7.0 and 4 mM 4-nitrophenyl beta-D-glucopyranoside (MUG). The reactions were incubated at different times (0, 40, 80, and 120 min) and arrested by the addition of a unit droplet of 0.3 M Glycine-NaOH on the assay areas on the device. Solutions contained 0.05% final concentration of F-68 Pluronics. […]
The typical model for analyzing kinetics of a beta-glucosidase enzyme is to use a chromogenic model substrate para-nitrophenyl-beta-glucoside (pNPG) that will produce glucose and para-nitrophenol upon hydrolysis (FIG. 14). The liberation of para-nitrophenol (pNP) gives a yellow color product which can be monitored by an image-based feedback system. […]

[5] = BGL off-chip assay in well plate, absorbance at 405 nm; assay type: biochemical, Thermobaculum terrenum; conditions: well-plate reader
Protocol: Referring to FIG. 16, there is shown off-chip enzymatic assay with an absorbance readout as a function of time were collected every 30 min. Nine reactions containing equal volume of lysate with enzyme and substrate were mixed in a well of a 96 well plate. At 30 min intervals, the reaction was arrested by glycine-NaOH solution and an absorbance measurement was acquired from the product formation of pNP which gave a yellow color. Each experiment was repeated three times, and error bars are +/−1 SD.
Protein expression. The plasmid containing the cloned BGL1 gene was first transformed into E. coli BL21(DE3) for recombinant expression. The transformed cells were inoculated overnight in a 5 mL pre-culture. The following day, the culture was diluted to OD 0.05 in a 100 mL starter culture and grown at 37° C. with 200 rpm shaking. Upon reaching OD 0.4, expression of the BGL1 gene was induced by addition of 1 mM IPTG and induction was carried out under the same growth conditions for 8 hours. […]
BGL off-chip assay. […] Absorbance at 405 nm was immediately acquired after stopping each reaction on a TECAN infinite M200 plate reader with the following settings: 9 nm bandwidth, single reads per well, 25 flashes per reading, and 0 ms of settle time. Reactions with absorbance units >4 were diluted and the final absorbance was calculated from the diluted sample. […]

CC(C)S[C@@H]1O[C@H](CO)[C@H](O)[C@H](O)[C@H]1O [IPTG, isopropyl beta-D-1-thiogalactopyranoside]
IPTG concentration at which protein production was constant (comparable to basal levels) [1]: < 30 µM | IPTG concentration giving highest protein production ([1]; induced at OD 0.4): above 200 micromolar

CNC(=O)c1cc(Oc2ccc(NC(=O)Nc3ccc(Cl)c(C(F)(F)F)c3)cc2)ccn1 [sorafenib, sorafenib tosylate]
IC50 (H1299 cells [2]; NCI-H1299, read-out: inhibitory sorafenib concentration achieving half-maximal viability level (IC50), on-chip, cells transfected with pCRISPR targeting RAF1, fitted sigmoid curve): 13.2 µM | IC50 (H1299 cells [2]; NCI-H1299, read-out: inhibitory sorafenib concentration achieving half-maximal viability level (IC50), on-chip, control (guide targeting eGFP), fitted sigmoid curve): 7.54 µM | sensitivity in the linear micromolar range (H1299 cells [2]; edited H1299 cells with CRISPR-mediated RAF1 targeting): 7 to 35 µM | fold reduction of IC50 with pCRISPR targeting RAF1 versus control (H1299 cells [2]; on-chip): ~1.8 fold | basal viability level (H1299 cells [3]): ~25%

B1: beta-glucosidase: β-glucosidase (BGL) from Thermobaculum terrenum in BL21(DE3) cell lysate, plasmid pET_BGL1 of Example 1 (protein, listed as Thermobaculum terrenum)
chain: MKHLVTTLLFGLVFAAAVRAQSSRVDSLLAAMTLAEKISLLHGAIDPTGEAGAGYVPGVPRLGIPAMRLTDGPAGIRTRHPATALPAPVALAASFDPELAYRYGHVMGIEGRARRHEVLLSPMVNIVRVPEAGRNFETFSEDPLLSAEMVAAEVRGIQDAGMMATVKHYVANNFENDRMRVNVVVDERTLREIYLPGFEAAIKAGAAAVMCAYNRVNGPYACDNEMLLTDILRDEWGFEGWVMTDWFAGHSLESLVRGLDQEMPGYTIPFSSPDMPLAPAVFADSLLAAVESGRIDEAYVDRAVRRILVQMEQFGLLDGESTPPEINIEAHAAVAREVAEAGAVLLRNENQTLPLSERDLQHLVVIGPTATRPLIGGGGSSRVQPFRTTSTLAALQELAGPQAQIRYVPGIDLDGMPVPSSALRTPDGQPGLLRQGADGTTQVDAQLDFTGERALPPGSQWTWTGTLTAPTAGVYELKLQTAGGVGTLSIDGQPVLRTGMFFSDASLIPTADSLENATYRIELQAGQQLSLTVQISGQVPSLPFLPAGQNPVQVRLAWVTPERRAAFLEEAAEAARAAHAAIVFVYEEGTEGRDRETLALRPDQDALVEAVAAANPRTTVVMNVGAPTLMPWAERVGAILLMWYPGQEGGWATADVLLGRANPAGRLPVTFPRRAEDAPTASPERYPGVDLTARYDEGIFVGYRWYDAQQIEPLFPFGHGLSYTTFAYENLRVEPDGDGFVVRFVVRNTGDRAGSDVPQVYLGPPENPPVPMAVRQLVGFRRVTLAPGEAQEVTVRIDGRALSYWSVEDHAWVKATGRRTLYVGASARDLRLQTEIDVQ
first order rate constant kDMF [4]: 4.64e-05 s⁻¹ | first order rate constant kPLATE [5]: 0.504 h⁻¹
